Consider 7 compounds from US20100168112A1, “2-Substituted and 4-substituted aryl nitrone compounds” (RENOVIS, INC., priority 2004, published 2010).

The structures appear in SMILES notation. pEC50: −log10 of the molar value. A value given as a limit tells only on which side of the number the result lay.

Data set [1] can be described thus: DPPH free radical-scavenging/antioxidant assay. The class given is biochemical. The note with it: 50 μM DPPH in 80% methanol; 24 h time point; read-out: EC50 (concentration at which a compound reduces by 50% the peak absorbance of DPPH at 520 nm). Put shortly:
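Compounds diluted 100-fold from DMSO stocks into 50 μM DPPH in 80% methanol; absorbance at 520 nm followed kinetically to steady state, with the 24 h reading used. EC50 interpolated from OD520 versus concentration; Trolox, BHA, PBN and S-PBN as positive controls, DMSO as vehicle.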

Data set [2] can be described thus: Plasma protein binding (equilibrium dialysis), rat plasma. The class given is in vitro ADME. The note with it: 1 μg/mL in plasma, dialysis vs phosphate buffer pH 7.4 overnight at 37° C., read-out: Plasma Protein Binding % Bound Rat (converted). The method, then: Nitrone compounds of this invention were individually dissolved in DMSO to make a stock solution of 1 mg/mL. The compound was spiked into plasma to achieve a final concentration of 1 μg/mL. Spiked plasma and phosphate buffer (0.1M, pH 7.4), 200 μl each, were added to the opposite sides of the membrane in a 96-well equilibrium dialyzer. The dialyzer plate was then covered and equilibrated overnight at 37° C. on an orbital shaker. Aliquots were taken from the plasma and the buffer compartments and prepared by adding blank plasma to samples from the buffer compartments and drug-free phosphate buffer to samples from the plasma compartments to eliminate the matrix effects. The samples were extracted using protein precipitation procedure by adding CH3CN. The samples were analyzed using a LC/MS/MS method. The percentage of free and bound nitrone compound were calculated according to the following formula:
%Free=[Free Drug/Total Drug]*100=[(Peak Area)buffer/(Peak Area)serum]*100%Bound=100%Free

A short description of data set [3]: Microsomal stability in rat liver microsomes. The data set is classed as in vitro ADME. The note with it: rat liver microsomes 0.5 mg/ml, 1 mM NADPH, ~500 ng/ml compound, 37° C. The method, then: Frozen Sprague-Dawley rat liver microsomes (RLM) were thawed on ice and gently mixed before use. The final reaction mixture consisted of a nitrone compound of this invention (at ˜500 ng/ml), 1 mM NADPH, and 0.5 mg/ml of RLM protein in 0.1 M PBS (pH7.4), with organic solvent concentration not exceeding 1% (v/v). Per set of incubations, a positive control compound was included. The mixture was first pre-incubated 3 to 5 minutes at 37° C. without NADPH, and the reaction was then initialized by the addition of NADPH and incubated at 37° C. for up to 30 minutes. An aliquot of the reaction mixture was sampled at the initiation of the reaction and at designated time after reaction started. The drawn samples were quenched with acetonitrile, diluted with mobile phase to ensure the detection of test article in the linear range, and analyzed by LC/MS/MS. Half-life or percentage of remaining nitrone compound was calculated using standard methods. A similar method, or a slight variation of it, was used to test the stability of nitrones in human liver microsomes (HLM).

Take `CC(C)(C)/[N+]([O-])=C/c1ccccc1S(C)(=O)=O` [Compound 66, N-tert-Butyl-C-(2-methanesulfonylphenyl)nitrone]: in data set [1], the pEC50 was 3.00 to 3.30. For the same compound, the fraction unbound at 1 μg/mL in data set [2] is 0.898.
On to `CC(C)(C)/[N+]([O-])=C/c1ccc(S(=O)(=O)N2CCOCC2)cc1` [Compound 23, N-(tert-Butyl)-C-[4-(morpholine-4-sulfonyl)phenyl]nitrone], for which the pEC50 in data set [1] was less than 3.00. Moreover, the fraction unbound at 1 μg/mL in data set [2] is 0.782.
For `CCS(=O)(=O)c1ccc(/C=[N+](\[O-])C(C)(C)C)c(S(=O)(=O)CC)c1` [Compound 64, N-tert-Butyl-C-(2,4-bis-ethanesulfonylphenyl)nitrone], in data set [3], the “% of Nitrone Remaining at 30 min (Rat)” value turned out to be 100%. Besides, the pEC50 in data set [1] is 3.00 to 3.30. Further, the fraction unbound at 1 μg/mL in data set [2] was 0.811.
In the same order, the values of `CC(C)(C)/[N+]([O-])=C/c1ccc(S(C)(=O)=O)cc1S(C)(=O)=O` [Compound 63, N-tert-Butyl-C-(2,4-bis-methanesulfonylphenyl)nitrone] are 97%, 3.00 to 3.30 and 0.741.
Consider `CC(C)(C)/[N+]([O-])=C/c1ccc(S(N)(=O)=O)cc1` [Compound 20, N-(tert-Butyl)-C-[4-(sulfamoyl)phenyl]nitrone], for which the pEC50 in data set [1] was less than 3.00. Moreover, the fraction unbound at 1 μg/mL in data set [2] is 0.976.
The corresponding values for `CC(C)(C)/[N+]([O-])=C/c1ccc(S(=O)(=O)Nc2cccnc2)cc1` [Compound 26, N-(tert-Butyl)-C-[4-(pyridin-3-ylsulfamoyl)phenyl]nitrone] are less than 3.00 and 0.01.
Turning to `CC(C)(C)/[N+]([O-])=C/c1ccc(S(C)(=O)=O)cc1` [Compound 62, N-tert-Butyl-C-[4-(methanesulfonyl)phenyl]nitrone], the “% of Nitrone Remaining at 30 min (Rat)” value in data set [3] is given as 100%. In addition, in data set [1], the pEC50 was less than 3.00. In addition, the fraction unbound at 1 μg/mL in data set [2] is 0.999.
